Results: US7115759B2, “Conjugated linoleic acid compositions” (Natural ASA, priority 2002, dated 2006)

What was measured:
[1] = Peroxide value (PV) by chlorimetric ferric thiocyanate method after storage; assay type: physicochemical; details: after storage in open glass; spectrophotometric ferric thiocyanate method; unit assumed
Source text: The present invention also contemplates stabilization of CLA containing compounds, including but not limited to, CLA, esters of CLA, and triglycerides of CLA by preventing oxidation of the compounds. The present invention is not limited to any one mechanism. Indeed, an understanding of the mechanism of the invention is not necessary to produce the composition or perform the methods of the present invention. […] After storage in open glass, the PV of CLA was 32; in comparison, the value for linoleic acid was 370.

[2] = diets containing 0.5 percent CLA; pigs, mice, humans; U.S. Pat. No. 5,554,646; cited from earlier work
[3] = system: human melanoma, colorectal and breast cancer cells; details: in vitro; cited from earlier work
[4] = system: rat mammary tumorigenesis; details: administration of CLA; Birt et al. 1992; cited from earlier work

Row | peroxide value (PV) [1] | Compound | fat content [2] | cytotoxicity [3] | rat mammary tumorigenesis [4]
1 | 370 meq/kg | CCCCC/C=C\C/C=C\CCCCCCCC(=O)O [linoleic acid] | – | – | –
2 | 32 meq/kg | conjugated linoleic acid [CLA] | significant drop in fat content | strong cytotoxic agent | inhibits rat mammary tumorigenesis
